Literature values in patent US20100080846A1, “DIPYRIDAMOLE AND […] ACID FORMULATIONS AND PROCESS FOR PREPARING SAME” (priority 2008, published 2010).

Conditions: above a pH of 4

In the case of `OCCN(CCO)c1nc(N2CCCCC2)c2nc(N(CCO)CCO)nc(N3CCCCC3)c2n1` [Dipyridamole, 2,6-bis-(diethanolamino)-4,8-dipiperidino-(5,4-d)-pyrimidine], the solubility in water is given as “practically insoluble”.
